Test results from patent US20150315211A1, “SMALL MOLECULES FOR THE MODULATION OF MCL-1 AND METHODS OF MODULATING CELL DEATH, CELL DIVISION, CELL DIFFERENTIATION AND METHODS OF TREATING DISORDERS” (priority 2010, published 2015).

How the values were obtained:
BCL-XLΔC = BCL-XLΔC (Homo sapiens, UniProt Q07817); test: High-throughput competitive FP binding screen, FITC-BAD BH3/BCL-XLΔC interaction; conditions: FITC-BAD BH3/BCL-XLΔC interaction pair, competitive FP screen
MCL-1ΔNΔC [1] = test: High-throughput competitive FP binding screen, FITC-MCL-1 SAHB/MCL-1ΔNΔC interaction; conditions: selectivity for MCL-1ΔNΔC over BCL-XLΔC targeting (BCL-XL % Bound minus MCL-1 % Bound)
MCL-1ΔNΔC [2] = molecular target: MCL-1ΔNΔC (Homo sapiens, UniProt Q07820); test: as above; parameters: the C-terminal alpha-helix was deleted from each of these constructs; GST (N, cleaved yes); made in house; conditions: FITC-MCL-1 SAHB/MCL-1ΔNΔC interaction pair, competitive FP screen
MCL-1ΔNΔC (Homo sapiens, UniProt Q07820), sequence (Q07820 172-320 limits assumed, stated change not applied): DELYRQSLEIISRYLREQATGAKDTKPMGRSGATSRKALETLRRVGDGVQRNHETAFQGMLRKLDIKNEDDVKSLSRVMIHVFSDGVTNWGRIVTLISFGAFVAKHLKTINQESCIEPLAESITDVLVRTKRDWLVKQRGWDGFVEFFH

BCL-XLΔC, sequence (Q07817 1-212 limits assumed, stated change not applied): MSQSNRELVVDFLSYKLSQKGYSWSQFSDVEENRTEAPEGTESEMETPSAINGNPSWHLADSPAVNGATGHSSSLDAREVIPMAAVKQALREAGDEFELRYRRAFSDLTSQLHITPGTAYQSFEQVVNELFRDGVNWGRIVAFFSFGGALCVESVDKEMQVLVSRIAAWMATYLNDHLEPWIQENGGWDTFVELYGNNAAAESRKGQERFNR

BCL-XL % Bound (BCL-XLΔC) [%] | Spec Values (MCL-1ΔNΔC [1]) | MCL-1% Bound (MCL-1ΔNΔC [2]) [%] | SMILES
82.24 | 47.31 | 34.93 | CCOc1cccc(CNc2ccc(N3CCCC3)cc2)c1
101 | 47.29 | 53.71 | COC(=O)c1c(NC(=O)C2CC2)sc(C)c1C
75.68 | 47.26 | 28.42 | Oc1ccc(/C=N/c2cccc(C(F)(F)F)c2)c(O)c1
94.15 | 47.12 | 47.02 | COC(=O)C1C(=O)NC(S)=C(C#N)C1c1ccccc1Cl (stereo not drawn)
102.2 | 47.12 | 55.09 | Cn1c(S)nnc1CNc1cccc(C(F)(F)F)c1
77.55 | 47.06 | 30.48 | C=CCN1C(=O)/C(=C2/C(=O)Nc3ccccc32)c2ccccc21
98.2 | 47.06 | 51.14 | O=C(CSc1nnc(C2CC2)n1Cc1ccco1)c1cccc(Cl)c1
112.4 | 47.02 | 65.42 | O=S(=O)(NNc1cnc2ccccc2n1)c1ccccc1C(F)(F)F
95.33 | 47.01 | 48.32 | CC1(C)CC(=O)C2=C(C1)Nc1ccc3ncccc3c1C2c1ccc(O)c(O)c1 (stereo not drawn)
82.47 | 46.64 | 35.83 | N#C/C(=C/c1ccc(-c2ccc(C(=O)O)cc2)o1)c1ccc(Cl)cc1
92.1 | 46.46 | 45.64 | O=C(NC(=S)NCc1ccccc1)C1CCCC1
96.07 | 46.39 | 49.68 | CNC(=S)N/N=C1\CCOc2ccc3ccccc3c21
95.03 | 46.37 | 48.65 | CC1CCc2c(sc3ncn4c(S)nnc4c23)C1 (stereo not drawn)
104.4 | 46.28 | 58.12 | Oc1ccc(SSc2ccc(O)cc2)cc1
90.49 | 46.13 | 44.36 | O=C(O)/C(S)=C\C=C\c1ccccc1
93.06 | 46.04 | 47.02 | CC1(C)c2ssc(=S)c2-c2ccccc2N1C(=O)CSC#N
109.3 | 45.97 | 63.36 | CN1CCC(N(C)Cc2cc(C(C)(C)C)c(O)c(C(C)(C)C)c2)CC1
86.73 | 45.97 | 40.76 | O=C1c2ccccc2-c2onc3ccc(Oc4c(F)c(F)c(F)c(F)c4F)c1c23
88.38 | 45.54 | 42.84 | O=C1c2ccccc2CCC1Sc1nnc(-c2ccncc2)o1 (stereo not drawn)
95.58 | 45.52 | 50.06 | N=C1NC(=O)/C(=C2/C(=O)Nc3ccc(Br)cc32)S1
98.25 | 45.49 | 52.76 | CCCCCSc1nnc(N/C=N/O)s1
98.46 | 45.46 | 53.01 | CCN(CC)c1ccc(C2C(C#N)=C(N)N(c3cccc(C)c3)C3=C2C(=O)CCC3)cc1 (stereo not drawn)
93.42 | 45.43 | 47.99 | Oc1ccc(C2Oc3ccccc3C3CC(c4ccccc4O)=NN32)cc1 (stereo not drawn)
92.93 | 45.24 | 47.69 | COC(=O)c1c(N)sc2c1Cc1ccccc1C2
82.8 | 45.2 | 37.61 | CC(C)CSC1=NSC2=NC(=O)/C(=C\c3ccc(SCc4ccco4)o3)C(=N)N12
94.99 | 45.19 | 49.8 | Cc1ccnc(NC(c2ccco2)c2c(C)[nH]c3ccccc23)c1 (stereo not drawn)
